Several values for one entry are separate records, joined by “and”; a condition that tells them apart may be missing. Equal values may be shown once. Inconclusive results and toxic doses are left out. Square brackets hold non-standard residues; d marks the D form. Peptide text beside a SMILES is read from it. * marks the point of attachment. ξ: configuration not given here. ξF = NC(Cc1ccccc1)C(=O)O; Cbz = O=C(OCc1ccccc1)*
System: P388 leukemia ip, CD2F1 mice, survival T/C
Test: NCI In Vivo Anticancer Drug Screen. Data for tumor model P388 Leukemia (intraperitoneal) in CD2F1 (CDF1) mice
Settings: endpoint: median survival time, higher = longer survival
How it was run: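 Mice carrying the transplanted tumor received test compound or vehicle. Survival was recorded in each group, and the value is the treated-group measurement divided by that of the vehicle-treated control group.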

[1] = dose: 12.5 mg/kg/injection, schedule: Q01DX009 (ip), vehicle: distilled water + Tween-80
[2] = dose: 60.0 mg/kg/injection, schedule: Q01DX005 (ip), vehicle: Klucel (hydroxypropylcellulose) (HPC)
[3] = dose: 120.0 mg/kg/injection, schedule: Q01DX005 (ip), vehicle: Klucel (hydroxypropylcellulose) (HPC)
[4] = dose: 240.0 mg/kg/injection, schedule: Q01DX005 (ip), vehicle: Klucel (hydroxypropylcellulose) (HPC)
[5] = dose: 50.0 mg/kg/injection, schedule: Q01DX009 (ip), vehicle: saline with Tween-80
[6] = dose: 60.0 mg/kg/injection, schedule: Q01DX005 (ip), vehicle: saline with Tween-80
[7] = dose: 120.0 mg/kg/injection, schedule: Q01DX005 (ip), vehicle: saline with Tween-80
[8] = dose: 240.0 mg/kg/injection, schedule: Q01DX005 (ip), vehicle: saline with Tween-80
[9] = dose: 100.0 mg/kg/injection, schedule: Q04DX003 (ip), vehicle: saline with Tween-80
[10] = dose: 200.0 mg/kg/injection, schedule: Q04DX003 (ip), vehicle: saline with Tween-80
[11] = dose: 50.0 mg/kg/injection, schedule: Q01DX005 (ip), vehicle: Klucel (hydroxypropylcellulose) (HPC)
[12] = dose: 100.0 mg/kg/injection, schedule: Q01DX005 (ip), vehicle: Klucel (hydroxypropylcellulose) (HPC)
[13] = dose: 100.0 mg/kg/injection, schedule: Q04DX003 (ip), vehicle: saline
[14] = dose: 200.0 mg/kg/injection, schedule: Q04DX003 (ip), vehicle: saline
[15] = dose: 400.0 mg/kg/injection, schedule: Q04DX003 (ip), vehicle: saline
[16] = dose: 100.0 mg/kg/injection, schedule: Q01DX009 (ip), vehicle: saline with Tween-80
[17] = dose: 200.0 mg/kg/injection, schedule: Q01DX009 (ip), vehicle: saline with Tween-80
[18] = dose: 200.0 mg/kg/injection, schedule: Q01DX005 (ip), vehicle: Klucel (hydroxypropylcellulose) (HPC)
[19] = dose: 50.0 mg/kg/injection, schedule: Q01DX005 (ip), vehicle: saline

`O=C1C=CC(=O)N1c1ccc(N2C(=O)C=CC2=O)cc1` was tested, and the T/C (dose: 0.78 mg/kg/injection, schedule: Q01DX009 (ip), vehicle: distilled water + Tween-80) was 102 % of control and 115 % of control, the T/C (dose: 1.56 mg/kg/injection, schedule: Q01DX009 (ip), vehicle: distilled water + Tween-80) was 103 % of control and 120 % of control and the T/C (dose: 3.13 mg/kg/injection, schedule: Q01DX009 (ip), vehicle: distilled water + Tween-80) was 121 % of control and 97 % of control. The T/C (dose: 6.25 mg/kg/injection, schedule: Q01DX009 (ip), vehicle: distilled water + Tween-80) was 112 % of control and 118 % of control and the T/C [1] was 105 % of control.
`Cn1cnc2c1c(=O)n(N)c(=O)n2C` was tested, and the T/C [2] was 102 % of control, the T/C [3] was 98 % of control and the T/C [4] was 92 % of control.
With `NC(=Nc1ccccc1)Nc1ccccc1` the T/C (dose: 12.5 mg/kg/injection, schedule: Q01DX009 (ip), vehicle: saline with Tween-80) was 99 % of control, the T/C (dose: 25.0 mg/kg/injection, schedule: Q01DX009 (ip), vehicle: saline with Tween-80) was 104 % of control and the T/C [5] was 102 % of control.
In the case of `Fc1ccc2cc3cccc[n+]3cc2c1`, the T/C (dose: 6.25 mg/kg/injection, schedule: Q01DX005 (ip), vehicle: saline with Tween-80) is reported as 100 % of control, the T/C (dose: 12.5 mg/kg/injection, schedule: Q01DX005 (ip), vehicle: saline with Tween-80) is reported as 99 % of control and the T/C (dose: 25.0 mg/kg/injection, schedule: Q01DX005 (ip), vehicle: saline with Tween-80) is reported as 99 % of control.
With `O=C(O)C12CCC(c3ccccc31)c1ccccc12` the T/C [6] was 101 % of control, the T/C [7] was 107 % of control and the T/C [8] was 100 % of control.
With `CCN(CC)CCCC(C)Nc1cc(C)nc2c1ccc1c2ccc2c(NC(C)CCCN(CC)CC)cc(C)nc21` (configuration not stated) the T/C [1] was 118 % of control and the T/C (dose: 25.0 mg/kg/injection, schedule: Q01DX009 (ip), vehicle: distilled water + Tween-80) was 111 % of control.
In the case of `COCCOCCN1CCN(CCCN2c3ccccc3Sc3ccc(C(F)(F)F)cc32)CC1`, the T/C (dose: 1.56 mg/kg/injection, schedule: Q04DX003 (ip), vehicle: saline) is reported as 95 % of control, the T/C (dose: 3.0 mg/kg/injection, schedule: Q04DX003 (ip), vehicle: saline) is reported as 104 % of control and 97 % of control and the T/C (dose: 3.12 mg/kg/injection, schedule: Q04DX003 (ip), vehicle: saline) is reported as 95 % of control. For the same compound, the T/C (dose: 6.0 mg/kg/injection, schedule: Q04DX003 (ip), vehicle: saline) was 108 % of control, the T/C (dose: 6.25 mg/kg/injection, schedule: Q04DX003 (ip), vehicle: saline) was 96 % of control and the T/C (dose: 12.0 mg/kg/injection, schedule: Q04DX003 (ip), vehicle: saline) was 104 % of control and 122 % of control. The T/C (dose: 12.5 mg/kg/injection, schedule: Q04DX003 (ip), vehicle: saline) was 120 % of control and the T/C (dose: 50.0 mg/kg/injection, schedule: Q04DX003 (ip), vehicle: saline) was 124 % of control.
With `CN1CCOC(c2ccccc2)c2ccsc2CC1` (configuration not stated) the T/C [6] was 98 % of control and the T/C [7] was 93 % of control.
`CCC1OCCN1C(C)C` (configuration not stated) was tested, and the T/C [9] was 104 % of control and the T/C [10] was 100 % of control.
`O=C(O)c1cc(-c2ccc(Cl)c(Cl)c2)nc2cc3ccccc3cc12` was tested, and the T/C (dose: 50.0 mg/kg/injection, schedule: Q01DX009 (ip), vehicle: Klucel (hydroxypropylcellulose) (HPC)) was 110 % of control, the T/C (dose: 100.0 mg/kg/injection, schedule: Q01DX009 (ip), vehicle: Klucel (hydroxypropylcellulose) (HPC)) was 106 % of control and the T/C (dose: 200.0 mg/kg/injection, schedule: Q01DX009 (ip), vehicle: Klucel (hydroxypropylcellulose) (HPC)) was 95 % of control.
For `OC(Cc1nc2ccccc2s1)c1ccco1` (configuration not stated), the T/C [2] was 101 % of control, the T/C [3] was 103 % of control and the T/C [4] was 103 % of control.
For `Cc1cc2oc3c(c2c(=O)[nH]1)C(=O)c1ccccc1C3=O`, the T/C [6] was 100 % of control, the T/C [7] was 94 % of control and the T/C [8] was 91 % of control.
With `NC(=S)N/N=C\c1ncccc1OCc1cccc(N)c1` the T/C [1] was 122 % of control, the T/C (dose: 12.5 mg/kg/injection, schedule: Q01DX009 (ip), vehicle: other) was 111 % of control and the T/C (dose: 25.0 mg/kg/injection, schedule: Q01DX009 (ip), vehicle: other) was 120 % of control and 124 % of control. For the same compound, the T/C (dose: 200.0 mg/kg/injection, schedule: Q01DX009 (ip), vehicle: distilled water + Tween-80) was 116 % of control, the T/C (dose: 200.0 mg/kg/injection, schedule: Q01DX009 (ip), vehicle: other) was 152 % of control and the T/C (dose: 400.0 mg/kg/injection, schedule: Q01DX009 (ip), vehicle: distilled water + Tween-80) was 100 % of control.
With `c1ccc2c(c1)[nH]c1c2nc2ncccn21` the T/C [11] was 106 % of control and the T/C [12] was 106 % of control.
`O=[N+]([O-])c1nc(-[n+]2ccccc2)[n-]c1Br` was tested, and the T/C [13] was 98 % of control, the T/C [14] was 100 % of control and the T/C [15] was 95 % of control.
In the case of `C=C(C)[C@@H](/C=C/[C@@H](C)[C@H]1CC[C@H]2C3=CC[C@H]4C[C@@H](O)CC[C@]4(C)[C@H]3CC[C@]12C)CC`, the T/C [5] is reported as 90 % of control, the T/C (dose: 50.0 mg/kg/injection, schedule: Q04DX003 (ip), vehicle: saline with Tween-80) is reported as 95 % of control and the T/C [16] is reported as 90 % of control. For the same compound, the T/C [9] was 90 % of control, the T/C [17] was 100 % of control and the T/C [10] was 95 % of control.
In the case of `CCC1C(=O)COC1=O` (configuration not stated), the T/C [11] is reported as 99 % of control, the T/C [12] is reported as 99 % of control and the T/C [18] is reported as 99 % of control.
With `Cc1nc(-c2nc(C(=O)NCCC[S+](C)C)cs2)cs1` the T/C [19] was 104 % of control.
`CCCCCCC(=O)/C=C/c1cccc([N+](=O)[O-])c1` was tested, and the T/C [5] was 89 % of control, the T/C [16] was 95 % of control and the T/C [17] was 94 % of control.
`COc1ccc2c(c1)C1(C)CCCC(C)(COC(C)=O)C1CC2` (configuration not stated) was tested, and the T/C (dose: 7.5 mg/kg/injection, schedule: Q01DX009 (ip), vehicle: saline with Tween-80) was 91 % of control, the T/C (dose: 15.0 mg/kg/injection, schedule: Q01DX009 (ip), vehicle: saline with Tween-80) was 91 % of control and the T/C (dose: 30.0 mg/kg/injection, schedule: Q01DX009 (ip), vehicle: saline with Tween-80) was 89 % of control.
In the case of `CC(CN1C(=O)CCC1=O)N1C(=O)CCC1=O` (configuration not stated), the T/C [19] is reported as 100 % of control, the T/C (dose: 100.0 mg/kg/injection, schedule: Q01DX005 (ip), vehicle: saline) is reported as 103 % of control and the T/C (dose: 200.0 mg/kg/injection, schedule: Q01DX005 (ip), vehicle: saline) is reported as 100 % of control.
In the case of `Cc1oc(C)c(-c2ccccc2)c1C(=O)N1CCN(C)CC1`, the T/C [6] is reported as 98 % of control and the T/C [7] is reported as 98 % of control.
With `O=C1CCSC(=O)N1c1ccccc1` the T/C (dose: 50.0 mg/kg/injection, schedule: Q01DX005 (ip), vehicle: saline with Tween-80) was 108 % of control, the T/C (dose: 100.0 mg/kg/injection, schedule: Q01DX005 (ip), vehicle: saline with Tween-80) was 100 % of control and the T/C (dose: 200.0 mg/kg/injection, schedule: Q01DX005 (ip), vehicle: saline with Tween-80) was 105 % of control.
For `O=c1[nH]nc(-c2ccc(Cl)cc2)c2c1[nH]c1ccccc12`, the T/C [6] was 98 % of control and the T/C [7] was 97 % of control.
In the case of `O=C(CNC(=O)OCc1ccccc1)NC(Cc1ccccc1)C(=O)O` (stereo not drawn) (Cbz-Gly-[ξF]-OH), the T/C [11] is reported as 105 % of control, the T/C [12] is reported as 100 % of control and the T/C [18] is reported as 104 % of control.
`CC1=C(O)NC(CC(=O)C(O)CO)=CN1` (configuration not stated) was tested, and the T/C (dose: 25.0 mg/kg/injection, schedule: Q01DX009 (ip), vehicle: water) was 101 % of control, the T/C (dose: 50.0 mg/kg/injection, schedule: Q01DX009 (ip), vehicle: water) was 100 % of control and the T/C (dose: 100.0 mg/kg/injection, schedule: Q01DX009 (ip), vehicle: water) was 95 % of control. The T/C (dose: 200.0 mg/kg/injection, schedule: Q01DX009 (ip), vehicle: water) was 95 % of control, the T/C (dose: 400.0 mg/kg/injection, schedule: Q01DX009 (ip), vehicle: water) was 111 % of control and the T/C (dose: 800.0 mg/kg/injection, schedule: Q01DX009 (ip), vehicle: water) was 117 % of control.
In the case of `S=c1nc[nH][nH]1`, the T/C (dose: 50.0 mg/kg/injection, schedule: Q01DX009 (ip), vehicle: suspension in saline) is reported as 99 % of control, the T/C (dose: 100.0 mg/kg/injection, schedule: Q01DX009 (ip), vehicle: suspension in saline) is reported as 105 % of control and the T/C (dose: 200.0 mg/kg/injection, schedule: Q01DX009 (ip), vehicle: suspension in saline) is reported as 106 % of control.
For `Cc1ccc(S(=O)(=O)CCC(=O)c2ccccc2)cc1`, the T/C [13] was 104 % of control, the T/C [14] was 100 % of control and the T/C [15] was 101 % of control.

Source: PubChem BioAssay AID330 (DTP/NCI, 2004)
